# In the NIST ThermoML archive (doi:10.1016/j.fluid.2018.09.026):
# Several values for one entry are separate records, joined by “and”; a condition that tells them apart may be missing. Equal values may be shown once. Numbers after ± are expanded uncertainties.
# Conditions: Liquid; for mass density: 333.15 K, Vibrating tube method; for viscosity: Vibrating wire viscometry
compound,measurement,setting,value
OCCOCCOCCO [triethylene glycol],mass density,2100 kPa,1092.7 ± 4.4 kg/m3
same,mass density,3070 kPa,1093.2 ± 4.4 kg/m3
same,mass density,5060 kPa,1094.2 ± 4.4 kg/m3
same,mass density,6980 kPa,1095.2 ± 4.4 kg/m3
same,mass density,9970 kPa,1096.6 ± 4.4 kg/m3
same,mass density,14840 kPa,1099 ± 4.4 kg/m3
same,mass density,19660 kPa,1101.3 ± 4.4 kg/m3
same,mass density,24670 kPa,1103.7 ± 4.4 kg/m3
same,mass density,29610 kPa,1106 ± 4.4 kg/m3
same,mass density,34530 kPa,1108.2 ± 4.5 kg/m3
same,mass density,39400 kPa,1110.3 ± 4.5 kg/m3
same,mass density,44280 kPa,1112.5 ± 4.5 kg/m3
same,mass density,49110 kPa,1114.5 ± 4.5 kg/m3
same,mass density,54040 kPa,1116.5 ± 4.5 kg/m3
same,mass density,59060 kPa,1118.6 ± 4.5 kg/m3
same,mass density,63830 kPa,1120.5 ± 4.5 kg/m3
same,mass density,68770 kPa,1122.4 ± 4.5 kg/m3
same,viscosity,"333.21 K, 150 kPa",9.306 ± 0.45 mPa·s [middle of 4 runs]
same,viscosity,"333.21 K, 170 kPa",9.339 ± 0.47 mPa·s [middle of 7 runs]
same,viscosity,"333.21 K, 750 kPa",9.338 ± 0.39 mPa·s
same,viscosity,"333.21 K, 760 kPa",9.422 ± 0.4 mPa·s and 9.347 ± 0.39 mPa·s
same,viscosity,"333.21 K, 790 kPa",9.383 ± 0.4 mPa·s
same,viscosity,"333.21 K, 1460 kPa",9.386 ± 0.38 mPa·s [middle of 4 runs]
same,viscosity,"333.21 K, 1470 kPa",9.379 ± 0.38 mPa·s and 9.375 ± 0.38 mPa·s and 9.363 ± 0.38 mPa·s
same,viscosity,"333.21 K, 4930 kPa",9.61 ± 0.39 mPa·s
same,viscosity,"333.21 K, 4940 kPa",9.609 ± 0.39 mPa·s and 9.653 ± 0.39 mPa·s
same,viscosity,"333.21 K, 4950 kPa",9.655 ± 0.39 mPa·s [middle of 4 runs]
same,viscosity,"333.21 K, 4970 kPa",9.688 ± 0.4 mPa·s and 9.672 ± 0.39 mPa·s
same,viscosity,"333.21 K, 4980 kPa",9.595 ± 0.39 mPa·s and 9.684 ± 0.4 mPa·s
same,viscosity,"333.21 K, 4990 kPa",9.704 ± 0.4 mPa·s
same,viscosity,"333.21 K, 5030 kPa",9.613 ± 0.39 mPa·s
same,viscosity,"333.21 K, 9610 kPa",10.02 ± 0.41 mPa·s
same,viscosity,"333.21 K, 9620 kPa",9.96 ± 0.41 mPa·s and 9.899 ± 0.4 mPa·s
same,viscosity,"333.21 K, 9680 kPa",9.927 ± 0.4 mPa·s
same,viscosity,"333.21 K, 9690 kPa",9.942 ± 0.4 mPa·s and 9.978 ± 0.41 mPa·s
same,viscosity,"333.21 K, 9700 kPa",9.918 ± 0.4 mPa·s
same,viscosity,"333.21 K, 9720 kPa",9.986 ± 0.41 mPa·s
same,viscosity,"333.21 K, 20900 kPa",10.78 ± 0.44 mPa·s
same,viscosity,"333.21 K, 20930 kPa",10.79 ± 0.44 mPa·s
same,viscosity,"333.21 K, 20940 kPa",10.78 ± 0.44 mPa·s and 10.79 ± 0.44 mPa·s
same,viscosity,"333.21 K, 29220 kPa",11.36 ± 0.65 mPa·s
same,viscosity,"333.21 K, 29260 kPa",11.37 ± 0.66 mPa·s
same,viscosity,"333.21 K, 29290 kPa",11.28 ± 0.68 mPa·s
same,viscosity,"333.21 K, 29370 kPa",11.48 ± 0.68 mPa·s
same,viscosity,"333.21 K, 29400 kPa",11.32 ± 0.62 mPa·s
same,viscosity,"333.21 K, 29410 kPa",11.32 ± 0.62 mPa·s
same,viscosity,"333.21 K, 29450 kPa",11.36 ± 0.63 mPa·s
same,viscosity,"333.21 K, 29460 kPa",11.34 ± 0.64 mPa·s
same,viscosity,"333.21 K, 29490 kPa",11.36 ± 0.64 mPa·s
same,viscosity,"333.21 K, 29520 kPa",11.49 ± 0.64 mPa·s
same,viscosity,"333.21 K, 29730 kPa",11.35 ± 0.75 mPa·s
same,viscosity,"333.21 K, 29740 kPa",11.35 ± 0.75 mPa·s
same,viscosity,"333.21 K, 29760 kPa",11.47 ± 0.75 mPa·s
same,viscosity,"333.21 K, 29770 kPa",11.42 ± 0.75 mPa·s
same,viscosity,"333.21 K, 37210 kPa",11.94 ± 0.49 mPa·s
same,viscosity,"333.21 K, 37260 kPa",12.04 ± 0.49 mPa·s
same,viscosity,"333.21 K, 37430 kPa",11.99 ± 0.49 mPa·s
same,viscosity,"333.21 K, 37490 kPa",12.07 ± 0.49 mPa·s
same,viscosity,"333.21 K, 38020 kPa",12.13 ± 0.49 mPa·s
same,viscosity,"333.21 K, 38150 kPa",12.06 ± 0.49 mPa·s
same,viscosity,"333.21 K, 38270 kPa",12.05 ± 0.49 mPa·s
same,viscosity,"333.21 K, 47910 kPa",12.77 ± 0.56 mPa·s
same,viscosity,"333.21 K, 48010 kPa",12.75 ± 0.56 mPa·s
same,viscosity,"333.21 K, 48280 kPa",12.76 ± 0.56 mPa·s
same,viscosity,"333.21 K, 49590 kPa",12.91 ± 0.57 mPa·s
same,viscosity,"333.21 K, 49640 kPa",13.01 ± 0.57 mPa·s
same,viscosity,"333.21 K, 49670 kPa",12.99 ± 0.57 mPa·s
same,viscosity,"333.21 K, 49700 kPa",12.96 ± 0.57 mPa·s
same,viscosity,"333.21 K, 49730 kPa",12.91 ± 0.56 mPa·s
same,viscosity,"333.21 K, 68790 kPa",14.61 ± 0.66 mPa·s
same,viscosity,"333.21 K, 69130 kPa",14.52 ± 0.63 mPa·s
same,viscosity,"333.21 K, 69650 kPa",14.74 ± 0.63 mPa·s
same,viscosity,"343.08 K, 200 kPa",6.978 ± 0.29 mPa·s and 6.969 ± 0.29 mPa·s and 6.931 ± 0.29 mPa·s
same,viscosity,"343.08 K, 1160 kPa",6.971 ± 0.28 mPa·s [middle of 4 runs]
same,viscosity,"343.08 K, 4890 kPa",7.185 ± 0.29 mPa·s
same,viscosity,"343.08 K, 4900 kPa",7.179 ± 0.29 mPa·s and 7.239 ± 0.29 mPa·s and 7.214 ± 0.29 mPa·s
same,viscosity,"343.08 K, 9750 kPa",7.392 ± 0.3 mPa·s
same,viscosity,"343.08 K, 9760 kPa",7.403 ± 0.3 mPa·s
same,viscosity,"343.08 K, 9770 kPa",7.403 ± 0.3 mPa·s
same,viscosity,"343.08 K, 20580 kPa",8.071 ± 0.33 mPa·s and 7.965 ± 0.32 mPa·s
same,viscosity,"343.08 K, 20590 kPa",8.036 ± 0.33 mPa·s and 7.937 ± 0.32 mPa·s
same,viscosity,"343.08 K, 20600 kPa",8.08 ± 0.33 mPa·s
same,viscosity,"343.08 K, 30330 kPa",8.459 ± 0.34 mPa·s
same,viscosity,"343.08 K, 30350 kPa",8.469 ± 0.34 mPa·s and 8.515 ± 0.35 mPa·s and 8.474 ± 0.34 mPa·s
same,viscosity,"343.08 K, 30390 kPa",8.519 ± 0.35 mPa·s
same,viscosity,"343.08 K, 39560 kPa",8.994 ± 0.36 mPa·s
same,viscosity,"343.08 K, 39590 kPa",9.055 ± 0.37 mPa·s
same,viscosity,"343.08 K, 39640 kPa",9.065 ± 0.37 mPa·s
same,viscosity,"343.08 K, 50360 kPa",9.671 ± 0.47 mPa·s
same,viscosity,"343.08 K, 50420 kPa",9.687 ± 0.39 mPa·s
same,viscosity,"343.08 K, 50470 kPa",9.572 ± 0.39 mPa·s
same,viscosity,"343.08 K, 50570 kPa",9.608 ± 0.47 mPa·s
same,viscosity,"343.08 K, 67230 kPa",10.62 ± 0.48 mPa·s
